How the values were obtained:
[1] = Photolytic (UV) degradation in Mili-Q water, LC-MS; type: physicochemical; conditions: 365 nm UV light, 7 h, 50 μg/mL in Mili-Q water, clear plastic vials, n = 3
Method: (§1) The separation was carried out using Kinetex XB-C18 column (150 mm × 2.1 mm × 1.7 μm; Phenomenex, Torrance, CA, USA). The mobile phase consisted of A: 0.1% formic acid in deionized water and B: 0.1% formic acid in acetonitrile (MeCN). The two-step gradient was used from 5% B to 50% B in 13 min and from 50% B to 65% B up to 20 min. The column temperature was maintained at 25 °C with a flow rate equal to 0.3 mL/min. The eluate was introduced directly to the mass spectrometer. The ion trap setting was as follows: capillary voltage 4500 V, endplate offset 500 V, nebulizer pressure 40 psi, drying gas temperature 145 °C and gas flow rate 9 L/min. The instrument used a smart parameter setting (SPS) fixed at 1000 amu. The scan range was from m/z = 70 to m/z = 2200. Compounds were analyzed in […] ion mode.
(§2) Before LC analysis, the ionization of each quantified compound in the positive ion mode was optimized by the direct injection of standard (50 µg/mL in 0.1% HCOOH in H2O; 0.3 mL/min) into the ESI source of the mass spectrometer. The intensity of the most abundant ion for each compound was monitored in order to choose optimal conditions. The quantification of investigated compounds was performed using the dominating ion (for both PK20 and [Ile^9] PK20 the ion at m/z =1357.40 ± 0.3, retention time ca. 11.2 min).
(§3) The calibration curves were plotted as the amount of injected compound (ng) vs. detector response (peak area) using extracted ion chromatograms (EIC) for the characteristic ion for each compound. The linear range for each quantified compound was between 5 and 200 ng per injection. Five amount levels were used for the plotting of curves. Samples at each level were analyzed in triplicate.
(§4) The stability of PK20 and [Ile^9]PK20 was tested under acidic, basic, oxidative, heat, freeze and ultraviolet light conditions. All experiments were conducted in triplicate (n = 3). The comparison of peak areas in degradative and non-degradative conditions for both compounds can be observed in Figure 3 and Figure 4.
PK20 and [Ile^9]PK20 solution (50 μg/mL) was prepared in Mili-Q water, and aliquots were kept in clear plastic vials exposed to UV light (366 nm, Camag, UV Lamp 4, Camag, Switzerland) for 7 h. After the incubation, the drug solution was diluted with an equal volume of 0.2% formic acid in acetonitrile and analyzed with LC-MS.

[2] = Thermal degradation and freeze-thaw in Mili-Q water, LC-MS; type: physicochemical; conditions: 50 μg/mL in Mili-Q water; for Concentration Found (Mean ± SD) / Recovery: n = 3
Method: as §1, §2, §3, §4
Solutions (50 μg/mL) of both hybrid peptides were prepared in Mili-Q water, and aliquots were kept at room temperature 22 °C, 37 °C and −80 °C for 24 h and at 80 °C for 12 h. One aliquot was also subjected to two freeze–thaw cycles with the sample first frozen at −80°C for 24 h, defrosted under running tap water at room temperature for 2 h and second frozen at −20°C for 24 h and defrosted under running tap water at room temperature for 2 h. Then, the solutions of PK20 and [Ile^9]PK20 were diluted with an equal volume of 0.2% formic acid in acetonitrile and analyzed with LC-MS.

[3] = Acid hydrolysis (1 M HCl) forced degradation, LC-MS; type: physicochemical; conditions: for Recovery / Concentration Found (Mean ± SD): acidic degradation, 50 μg/mL in 1 M HCl, n = 3; for Concentration Found (Mean ± SD): neutralised with 1 M NaOH; for half-life in 1M HCl: calculated half-life, acidic conditions, 50 μg/mL, temperature not given for the half-life
Method: as §1, §2, §3, §4
(§5) Drug solution (50 μg/mL) was prepared in HCl (1 M) or NaOH (1 M). Aliquots were kept at a temperature of 80 °C (LBK type water bath, SWL Bytom, Poland) for 12 h and 37°C (medical water bath, LW102, Auritronic, Krakow, Poland) for 24 h. At a specific time-point, acidic and basic solutions of both PK20 and [Ile^9]PK20 were neutralized with an equal volume of 1 M NaOH or 1 M HCl, respectively, and diluted with an equal volume of 0.2% formic acid in acetonitrile and analyzed using LC-MS.

[4] = system: CA1 region of the hippocampus; assay: Excitotoxic injury in organotypic hippocampal slice cultures subjected to NMDA; type: cell-based, Rat; conditions: administered simultaneously with NMDA, data not published
mu opioid receptor [5] = conditions: intrinsic activity of the receptor; read-out: EC50 (potency) at mu opioid receptor; cited from earlier work
Text: Since hybrid compounds have gained attention due to their potent multifunctional behavior with a more favorable profile in terms of possible side effects, much work devoted to such compounds can be found. PK20 and [Ile^9]PK20, which are hybrid structures encompassing both opioid and neurotensin pharmacophores, although modified, were designed and synthesized to reduce pain.

[6] = Oxidative degradation (30% H2O2), LC-MS; type: physicochemical; conditions: n = 3
Method: as §1, §2, §3, §4
PK20 and [Ile^9]PK20 solution (50 μg/mL) was prepared in 30% (v/v) hydrogen peroxide (H2O2). Aliquots were incubated at 37 °C for 24 h and 80 °C for 12 h. After the incubation, each drug solution was diluted with an equal volume of 0.2% formic acid in acetonitrile and analyzed with LC-MS.

[7] = Base hydrolysis (1 M NaOH) forced degradation, LC-MS; type: physicochemical; conditions: for Recovery / Concentration Found (Mean ± SD): basic degradation, 50 μg/mL in 1 M NaOH, n = 3; for Concentration Found (Mean ± SD): neutralised with 1 M HCl; for half-life (t1/2) in 1M NaOH: calculated half-life, alkaline conditions, 50 μg/mL, temperature not given for the half-life
Method: as §1, §2, §3, §4, §5

[8] = system: NTS1 neurotensin receptor; conditions: replacement of Tle with Ile; cited from earlier work
Text: (§6) Tle and Ile are structural isomers belonging to the same class of leucines with the same atomic composition (C6H13NO2) but they have different chemical structures, including different bond coordination and stereochemistry (Figure 1). Thus, their presence in the peptide structure led to diverse results. In fact, incorporation of Ile into the 9th position of the peptide chain caused a decrease in the analgesic activity in vivo when compared with PK20, having a tert-leucine (Tle9) in the corresponding position. Nonetheless, [Ile^9]PK20 produced the maximal pain-relieving effect, although wi ...

mu opioid receptor [9] = conditions: replacement of Tle with Ile; cited from earlier work
Text: as §6

[10] = thermal degradation, 37 °C, 24 h
[11] = thermal degradation, 80 °C, 12 h
[12] = thermal degradation, room temperature (22 °C), 24 h
[13] = thermal degradation, −80 °C, 24 h
[14] = two freeze–thaw cycles (24 h −80 °C, 2 h 22 °C, 24 h −20 °C)
[15] = 37 °C, 24 h, LC-MS (EIC m/z 1357.40)
[16] = 50 μg/mL in 30% (v/v) H2O2, 37 °C, 24 h
[17] = 50 μg/mL in 30% (v/v) H2O2, 80 °C, 12 h
[18] = thermal, temperatures ranging from 22 °C through 37 °C to +80 °C

Substance: HELM PEPTIDE1{[Cc1cc(O)cc(C)c1C[C@H](N)C(=O)[*:2]].[dK].F.F.K.K.P.F.I.L}$$$$V2.0 (N-terminus assumed; SMILES CC[C@H](C)[C@H](NC(=O)[C@H](Cc1ccccc1)NC(=O)[C@@H]1CCCN1C(=O)[C@H](CCCCN)NC(=O)[C@H](CCCCN)NC(=O)[C@H](Cc1ccccc1)NC(=O)[C@H](Cc1ccccc1)NC(=O)[C@@H](CCCCN)NC(=O)[C@@H](N)Cc1c(C)cc(O)cc1C)C(=O)N[C@@H](CC(C)C)C(=O)O) [[Ile^9]PK20, analogue of PK20 with Ile instead of Tle at position 9]
- Concentration Found (Mean ± SD) [1]: 9630 ± 110 ng/mL
- Recovery [1]: 19.25%
- Concentration Found (Mean ± SD) [2, 10]: 44160 ± 990 ng/mL
- Recovery [2, 10]: 88.32%
- Concentration Found (Mean ± SD) [2, 11]: 43270 ± 1180 ng/mL
- Recovery [2, 11]: 86.54%
- Concentration Found (Mean ± SD) [2, 12]: 49710 ± 2240 ng/mL
- Recovery [2, 12]: 99.41%
- Concentration Found (Mean ± SD) [2, 13]: 51870 ± 400 ng/mL
- Recovery [2, 13]: 103.74%
- Concentration Found (Mean ± SD) [2, 14]: 49040 ± 1030 ng/mL
- Recovery ([3]; 37 °C, 24 h, LC-MS): 88.79%
- Concentration Found (Mean ± SD) [3, 15]: 44390 ± 4480 ng/mL
- Recovery ([3]; 80 °C, 12 h, LC-MS): 52.25%
- Concentration Found (Mean ± SD) ([3]; 80 °C, 12 h, LC-MS): 26120 ± 1520 ng/mL
- half-life in 1M HCl ([3]; LC-MS): 117.7 h
- extent of damage to the CA1 region of the hippocampus ([4]; dose 25 ng/mL): 8.53% ± 2.65
- extent of damage to the CA1 region of the hippocampus ([4]; dose 50 ng/mL): 19.04% ± 8.52
- extent of damage to the CA1 region of the hippocampus ([4]; dose 100 ng/mL): 8.62% ± 0.62
- EC50 (mu opioid receptor [5]): 1240 nM
- Concentration Found (Mean ± SD) [6, 16]: 31390 ± 270 ng/mL
- Recovery [6, 16]: 62.79%
- Concentration Found (Mean ± SD) [6, 17]: 8240 ± 6690 ng/mL
- Recovery [6, 17]: 16.48%
- Recovery ([7]; 37 °C, 24 h): 37.13%
- Concentration Found (Mean ± SD) ([7]; 37 °C, 24 h): 18560 ± 590 ng/mL
- Recovery ([7]; 80 °C, 12 h): 11.23%
- Concentration Found (Mean ± SD) ([7]; 80 °C, 12 h): 5610 ± 1830 ng/mL
- half-life (t1/2) in 1M NaOH [7]: 4.69 h
- binding at NTS1 neurotensin receptor relative to PK20 [8]: reduced binding
- binding at mu opioid receptor relative to PK20 (mu opioid receptor [9]): reduced binding

Substance: HELM PEPTIDE1{[Cc1cc(O)cc(C)c1C[C@H](N)C(=O)[*:2]].[dK].F.F.K.K.P.F.[CC(C)(C)[C@H](N[*:1])C(=O)[*:2]].L}$$$$V2.0 (N-terminus assumed; SMILES Cc1cc(O)cc(C)c1C[C@H](N)C(=O)N[C@H](CCCCN)C(=O)N[C@@H](Cc1ccccc1)C(=O)N[C@@H](Cc1ccccc1)C(=O)N[C@@H](CCCCN)C(=O)N[C@@H](CCCCN)C(=O)N1CCC[C@H]1C(=O)N[C@@H](Cc1ccccc1)C(=O)N[C@H](C(=O)N[C@@H](CC(C)C)C(=O)O)C(C)(C)C) [PK20, opioid–neurotensin hybrid peptide]
- Concentration Found (Mean ± SD) [1]: 18720 ± 940 ng/mL
- Recovery [1]: 37.44%
- Concentration Found (Mean ± SD) [2, 10]: 49980 ± 350 ng/mL
- Recovery [2, 10]: 99.97%
- Concentration Found (Mean ± SD) [2, 11]: 48670 ± 2740 ng/mL
- Recovery [2, 11]: 97.34%
- Concentration Found (Mean ± SD) [2, 12]: 51360 ± 1640 ng/mL
- Recovery [2, 12]: 102.72%
- Concentration Found (Mean ± SD) [2, 13]: 51900 ± 200 ng/mL
- Recovery [2, 13]: 103.80%
- remaining concentration of the peptide [2, 18]: approximately 50 μg/mL
- remaining peptide as percentage [2, 18]: ~100%
- Concentration Found (Mean ± SD) [2, 14]: 43250 ± 9420 ng/mL
- Recovery [2, 14]: 86.50%
- Recovery ([3]; 37 °C, 24 h, LC-MS): 78.19%
- Concentration Found (Mean ± SD) [3, 15]: 39090 ± 6330 ng/mL
- Recovery ([3]; 80 °C, 12 h, LC-MS): 54.43%
- Concentration Found (Mean ± SD) ([3]; 80 °C, 12 h, LC-MS): 27220 ± 2750 ng/mL
- half-life in 1M HCl ([3]; LC-MS): 204.4 h
- EC50 (mu opioid receptor [5]): 79 nM
- Concentration Found (Mean ± SD) [6, 16]: 30520 ± 490 ng/mL
- Recovery [6, 16]: 61.04%
- Concentration Found (Mean ± SD) [6, 17]: 9800 ± 200 ng/mL
- Recovery [6, 17]: 19.60%
- Recovery ([7]; 37 °C, 24 h): 30.32%
- Concentration Found (Mean ± SD) ([7]; 37 °C, 24 h): 15160 ± 340 ng/mL
- Recovery ([7]; 80 °C, 12 h): 11.44%
- Concentration Found (Mean ± SD) ([7]; 80 °C, 12 h): 5710 ± 1670 ng/mL
- half-life (t1/2) in 1M NaOH [7]: 11.36 h

Source: PMC9500858 (International Journal of Molecular Sciences, 2022)
